Source: PubChem BioAssay (NCI)
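Following 48 hours of exposure in 96-well plates, responses at five concentrations were used to interpolate endpoints linearly. The concentration for full growth arrest is given as TGI.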

Columns and labels:
Experiment in all cases: NCI anticancer screen, dose series, 48 h
786-0 renal = test system: 786-0 renal
A549 NSCLC = test system: A549 NSCLC
BT-549 breast = test system: BT-549 breast
CAKI-1 renal = test system: CAKI-1 renal
CCRF-CEM leukemia = test system: CCRF-CEM leukemia
COLO 205 colon = test system: COLO 205 colon
DU-145 prostate = test system: DU-145 prostate
EKVX NSCLC = test system: EKVX NSCLC
HCT-116 colon = test system: HCT-116 colon
HCT-15 colon = test system: HCT-15 colon
HL-60(TB) leukemia = test system: HL-60(TB) leukemia
HOP-92 NSCLC = test system: HOP-92 NSCLC
HT29 colon = test system: HT29 colon
IGROV1 ovarian = test system: IGROV1 ovarian
K-562 leukemia = test system: K-562 leukemia
KM12 colon = test system: KM12 colon
LOX IMVI melanoma = test system: LOX IMVI melanoma
M14 melanoma = test system: M14 melanoma
MDA-MB-231 breast = test system: MDA-MB-231 breast
MDA-MB-435 = test system: MDA-MB-435
MDA-N = test system: MDA-N
MOLT-4 leukemia = test system: MOLT-4 leukemia
NCI-H226 lung = test system: NCI-H226 lung
NCI-H23 lung = test system: NCI-H23 lung
NCI/ADR-RES ovarian = test system: NCI/ADR-RES ovarian
OVCAR-4 ovarian = test system: OVCAR-4 ovarian
OVCAR-5 ovarian = test system: OVCAR-5 ovarian
OVCAR-8 ovarian = test system: OVCAR-8 ovarian
PC-3 prostate = test system: PC-3 prostate
RPMI-8226 leukemia = test system: RPMI-8226 leukemia
RXF 393 renal = test system: RXF 393 renal
SF-539 CNS = test system: SF-539 CNS
SK-MEL-2 melanoma = test system: SK-MEL-2 melanoma
SK-MEL-28 melanoma = test system: SK-MEL-28 melanoma
SK-MEL-5 melanoma = test system: SK-MEL-5 melanoma
SN12C renal = test system: SN12C renal
SNB-19 CNS = test system: SNB-19 CNS
SNB-75 CNS = test system: SNB-75 CNS
SR leukemia = test system: SR leukemia
SW-620 colon = test system: SW-620 colon
T-47D breast = test system: T-47D breast
U251 CNS = test system: U251 CNS
UO-31 renal = test system: UO-31 renal
A498 renal = test system: A498 renal
ACHN renal = test system: ACHN renal
HCC-2998 colon = test system: HCC-2998 colon
HOP-62 NSCLC = test system: HOP-62 NSCLC
MALME-3M melanoma = test system: MALME-3M melanoma
MCF7 breast = test system: MCF7 breast
NCI-H460 lung = test system: NCI-H460 lung
NCI-H522 lung = test system: NCI-H522 lung
OVCAR-3 ovarian = test system: OVCAR-3 ovarian
SF-295 CNS = test system: SF-295 CNS
SK-OV-3 ovarian = test system: SK-OV-3 ovarian
TK-10 renal = test system: TK-10 renal
UACC-257 melanoma = test system: UACC-257 melanoma
UACC-62 melanoma = test system: UACC-62 melanoma

`C=CCC1(C#N)C(=S)NC2=C(C(=O)CC(C)(C)C2)C1c1ccccc1` (centres undefined) gave a TGI (786-0 renal) greater than 100 µM, a TGI (A549 NSCLC) greater than 100 µM and a TGI (BT-549 breast) greater than 100 µM. It also gave a TGI (CAKI-1 renal) greater than 100 µM, a TGI (CCRF-CEM leukemia) greater than 100 µM and a TGI (COLO 205 colon) greater than 100 µM. For the same compound, the TGI (DU-145 prostate) was 40.5 µM, the TGI (EKVX NSCLC) was 60.5 µM and the TGI (HCT-116 colon) was greater than 100 µM. It also gave a TGI (HCT-15 colon) greater than 100 µM, a TGI (HL-60(TB) leukemia) greater than 100 µM and a TGI (HOP-92 NSCLC) of 90.2 µM. The TGI (HT29 colon) was greater than 100 µM, the TGI (IGROV1 ovarian) was greater than 100 µM and the TGI (K-562 leukemia) was greater than 100 µM. The TGI (KM12 colon) was greater than 100 µM, the TGI (LOX IMVI melanoma) was greater than 100 µM and the TGI (M14 melanoma) was greater than 100 µM. The TGI (MDA-MB-231 breast) was greater than 100 µM, the TGI (MDA-MB-435) was greater than 100 µM and the TGI (MDA-N) was greater than 100 µM. The TGI (MOLT-4 leukemia) was greater than 100 µM, the TGI (NCI-H226 lung) was greater than 100 µM and the TGI (NCI-H23 lung) was greater than 100 µM. The TGI (NCI/ADR-RES ovarian) was greater than 100 µM, the TGI (OVCAR-4 ovarian) was 88.9 µM and the TGI (OVCAR-5 ovarian) was greater than 100 µM. It also gave a TGI (OVCAR-8 ovarian) of 53.1 µM, a TGI (PC-3 prostate) greater than 100 µM and a TGI (RPMI-8226 leukemia) greater than 100 µM. For the same compound, the TGI (RXF 393 renal) was greater than 100 µM, the TGI (SF-539 CNS) was greater than 100 µM and the TGI (SK-MEL-2 melanoma) was greater than 100 µM. The TGI (SK-MEL-28 melanoma) was greater than 100 µM, the TGI (SK-MEL-5 melanoma) was greater than 100 µM and the TGI (SN12C renal) was greater than 100 µM. For the same compound, the TGI (SNB-19 CNS) was greater than 100 µM, the TGI (SNB-75 CNS) was 74.8 µM and the TGI (SR leukemia) was greater than 100 µM. The TGI (SW-620 colon) was greater than 100 µM, the TGI (T-47D breast) was greater than 100 µM and the TGI (U251 CNS) was greater than 100 µM. The TGI (UO-31 renal) was greater than 100 µM.

With `COc1cc(/C=C2\C(=O)N(c3cccc([N+](=O)[O-])c3)C(c3ccccc3)S2(=O)=O)cc(OC)c1OC` (centres undefined) the TGI (786-0 renal) was greater than 100 µM, the TGI (A498 renal) was greater than 100 µM and the TGI (A549 NSCLC) was greater than 100 µM. The TGI (ACHN renal) was greater than 100 µM, the TGI (BT-549 breast) was greater than 100 µM and the TGI (CAKI-1 renal) was greater than 100 µM. The TGI (CCRF-CEM leukemia) was greater than 100 µM, the TGI (COLO 205 colon) was greater than 100 µM and the TGI (DU-145 prostate) was greater than 100 µM. For the same compound, the TGI (EKVX NSCLC) was greater than 100 µM, the TGI (HCC-2998 colon) was greater than 100 µM and the TGI (HCT-116 colon) was greater than 100 µM. It also gave a TGI (HCT-15 colon) greater than 100 µM, a TGI (HL-60(TB) leukemia) greater than 100 µM and a TGI (HOP-62 NSCLC) greater than 100 µM. For the same compound, the TGI (HOP-92 NSCLC) was greater than 100 µM, the TGI (HT29 colon) was greater than 100 µM and the TGI (IGROV1 ovarian) was greater than 100 µM. The TGI (K-562 leukemia) was greater than 100 µM, the TGI (KM12 colon) was greater than 100 µM and the TGI (LOX IMVI melanoma) was greater than 100 µM. For the same compound, the TGI (M14 melanoma) was greater than 100 µM, the TGI (MALME-3M melanoma) was greater than 100 µM and the TGI (MCF7 breast) was greater than 100 µM. It also gave a TGI (MDA-MB-231 breast) greater than 100 µM, a TGI (MDA-MB-435) greater than 100 µM and a TGI (MDA-N) greater than 100 µM. The TGI (MOLT-4 leukemia) was greater than 100 µM, the TGI (NCI-H226 lung) was greater than 100 µM and the TGI (NCI-H23 lung) was greater than 100 µM. The TGI (NCI-H460 lung) was greater than 100 µM, the TGI (NCI-H522 lung) was greater than 100 µM and the TGI (NCI/ADR-RES ovarian) was greater than 100 µM. It also gave a TGI (OVCAR-3 ovarian) greater than 100 µM, a TGI (OVCAR-4 ovarian) greater than 100 µM and a TGI (OVCAR-5 ovarian) greater than 100 µM. For the same compound, the TGI (OVCAR-8 ovarian) was greater than 100 µM, the TGI (PC-3 prostate) was greater than 100 µM and the TGI (RPMI-8226 leukemia) was greater than 100 µM. For the same compound, the TGI (RXF 393 renal) was greater than 100 µM, the TGI (SF-295 CNS) was greater than 100 µM and the TGI (SK-MEL-2 melanoma) was greater than 100 µM. For the same compound, the TGI (SK-MEL-28 melanoma) was greater than 100 µM, the TGI (SK-MEL-5 melanoma) was greater than 100 µM and the TGI (SK-OV-3 ovarian) was greater than 100 µM. For the same compound, the TGI (SN12C renal) was greater than 100 µM, the TGI (SNB-19 CNS) was greater than 100 µM and the TGI (SNB-75 CNS) was greater than 100 µM. The TGI (SR leukemia) was greater than 100 µM, the TGI (SW-620 colon) was greater than 100 µM and the TGI (T-47D breast) was greater than 100 µM. It also gave a TGI (TK-10 renal) greater than 100 µM, a TGI (U251 CNS) greater than 100 µM and a TGI (UACC-257 melanoma) greater than 100 µM. For the same compound, the TGI (UACC-62 melanoma) was greater than 100 µM and the TGI (UO-31 renal) was greater than 100 µM.
